According to ChEMBL document CHEMBL3259781 (J Med Chem, 2014):

Tests used:
Adenosine receptor A3 [1] = target: T1, Adenosine receptor A3 (Homo sapiens, UniProt P0DMS8)
T1 sequence (P0DMS8 whole entry): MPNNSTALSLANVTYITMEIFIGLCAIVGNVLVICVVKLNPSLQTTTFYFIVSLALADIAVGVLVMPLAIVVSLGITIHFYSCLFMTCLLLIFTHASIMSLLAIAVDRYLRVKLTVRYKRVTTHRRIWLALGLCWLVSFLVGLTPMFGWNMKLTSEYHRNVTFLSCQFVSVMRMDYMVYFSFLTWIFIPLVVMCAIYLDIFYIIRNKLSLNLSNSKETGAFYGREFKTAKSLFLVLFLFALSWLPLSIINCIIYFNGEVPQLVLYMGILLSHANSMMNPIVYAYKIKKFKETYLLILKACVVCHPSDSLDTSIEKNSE

Homo sapiens = species: Homo sapiens; assay: Selectivity ratio of Ki for human recombinant adenosine A1 receptor to Ki for human recombinant adenosine receptor A2a
Adenosine receptor A1 [2] = target: T2, Adenosine receptor A1 (Homo sapiens, UniProt P30542)
T2 sequence (P30542 whole entry): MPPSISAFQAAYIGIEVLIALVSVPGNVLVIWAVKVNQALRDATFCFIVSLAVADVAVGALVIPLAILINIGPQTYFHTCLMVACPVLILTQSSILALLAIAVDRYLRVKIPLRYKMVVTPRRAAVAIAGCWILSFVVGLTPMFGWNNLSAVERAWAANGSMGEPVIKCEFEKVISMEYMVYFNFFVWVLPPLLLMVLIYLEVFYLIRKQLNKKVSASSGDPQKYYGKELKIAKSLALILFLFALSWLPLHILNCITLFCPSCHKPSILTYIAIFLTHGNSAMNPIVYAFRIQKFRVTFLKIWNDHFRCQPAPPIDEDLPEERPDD

Adenosine receptor A2b = target: T3, Adenosine receptor A2b (Homo sapiens, UniProt P29275)
T3 sequence (P29275 whole entry): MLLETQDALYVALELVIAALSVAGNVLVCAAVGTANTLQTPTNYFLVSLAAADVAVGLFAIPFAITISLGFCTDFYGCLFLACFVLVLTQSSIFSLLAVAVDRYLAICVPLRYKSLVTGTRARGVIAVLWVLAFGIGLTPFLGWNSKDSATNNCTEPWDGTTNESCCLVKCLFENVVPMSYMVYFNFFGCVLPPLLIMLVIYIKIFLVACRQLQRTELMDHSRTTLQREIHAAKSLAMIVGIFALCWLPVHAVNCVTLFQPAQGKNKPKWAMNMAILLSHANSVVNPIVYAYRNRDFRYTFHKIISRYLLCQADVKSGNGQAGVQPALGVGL

Adenosine receptor A2a [3] = target: T4, Adenosine receptor A2a (Homo sapiens, UniProt P29274); assay: Inhibition of human recombinant adenosine receptor A2a at 10 nM
Adenosine receptor A2a [4] = target: T4, Adenosine receptor A2a; assay: Inhibition of human recombinant adenosine receptor A2a at 100 nM
[5] = target: T5, Adenosine receptor A2b (Homo sapiens) (UniProt P29275); assay: Inhibition of human recombinant adenosine receptor A2b at 1 uM
T5 sequence (whole entry): T3 sequence (P29275 whole entry)

[6] = target: T5, Adenosine receptor A2b (Homo sapiens); assay: Inhibition of human recombinant adenosine receptor A2b at 10 uM
[7] = target: T6, Adenosine receptor A1 (Homo sapiens) (UniProt P30542); assay: Inhibition of human recombinant adenosine A1 receptor at 1 uM
T6 sequence (whole entry): T2 sequence (P30542 whole entry)

[8] = target: T6, Adenosine receptor A1 (Homo sapiens); assay: Inhibition of human recombinant adenosine A1 receptor at 10 uM
Mus musculus [9] = assay: Anticataleptic activity in mouse assessed as inhibition of CGS21680-induced catalepsy at 10 mg/kg, po; type: functional
Rattus norvegicus [10] = assay: Anticataleptic activity in rat assessed as inhibition at 1 mg/kg, po after 1 hr; type: functional; conditions: Rattus norvegicus, po, 1 h
Rattus norvegicus [11] = assay: Anticataleptic activity in rat assessed as inhibition at 1 mg/kg, po after 4 hrs; type: functional; conditions: Rattus norvegicus, po, 4 h
Adenosine receptor A1 [12] = target: T7, Adenosine receptor A1 (Rattus norvegicus, UniProt P25099); assay: Binding affinity to rat recombinant adenosine A1 receptor
T7 sequence (P25099 whole entry): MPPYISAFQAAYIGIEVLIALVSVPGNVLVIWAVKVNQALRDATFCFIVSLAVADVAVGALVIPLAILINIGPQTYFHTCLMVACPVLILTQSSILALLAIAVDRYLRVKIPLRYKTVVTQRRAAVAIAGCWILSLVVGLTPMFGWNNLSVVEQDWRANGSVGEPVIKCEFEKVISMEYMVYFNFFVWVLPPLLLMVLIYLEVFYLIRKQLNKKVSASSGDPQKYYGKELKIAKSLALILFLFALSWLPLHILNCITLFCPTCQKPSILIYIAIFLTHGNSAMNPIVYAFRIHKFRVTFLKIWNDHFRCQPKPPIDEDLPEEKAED

Adenosine receptor A3 [13] = target: T1, Adenosine receptor A3; assay: Binding affinity to human recombinant adenosine A3 receptor
Adenosine receptor A2a [14] = target: T4, Adenosine receptor A2a
Mus musculus [15] = assay: Anticataleptic activity in po dosed mouse assessed as inhibition of haloperidol-induced catalepsy; type: functional
Adenosine receptor A2a [16] = target: T4, Adenosine receptor A2a; remark: listed apart in the source
Rattus norvegicus [17] = species: Rattus norvegicus; assay: Selectivity ratio of Ki for rat striatal adenosine A1 receptor to Ki for rat recombinant adenosine receptor A2a
Adenosine receptor A1 [18] = target: T7, Adenosine receptor A1
[19] = AUC in rat at 3 mg/kg, po; type: ADME, organism-based; design: dose 3 mg/kg, route oral; conditions: plasma
Rattus norvegicus [20] = assay: Anticataleptic activity in rat assessed as inhibition at 3 mg/kg, po after 1 hr; type: functional
Rattus norvegicus [21] = assay: Anticataleptic activity in rat assessed as inhibition at 3 mg/kg, po after 4 hrs; type: functional
Rattus norvegicus [22] = species: Rattus norvegicus; assay: Anticataleptic activity in rat assessed as minimum efficacious dose; type: functional; conditions: read-out: MED
[23] = target: Adenosine receptor A2a (Rattus norvegicus) (UniProt P30543); assay: Receptor occupancy at adenosine receptor A2a in rat striatum; type: tissue-based
Adenosine receptor A2a [24] = target: Adenosine receptor A2a (Rattus norvegicus, UniProt P30543)
Rattus norvegicus [25] = assay: Induction of hypolocomotion in po dosed rat assessed as reduction in motor deficts; type: functional

T4 sequence (P29274 whole entry): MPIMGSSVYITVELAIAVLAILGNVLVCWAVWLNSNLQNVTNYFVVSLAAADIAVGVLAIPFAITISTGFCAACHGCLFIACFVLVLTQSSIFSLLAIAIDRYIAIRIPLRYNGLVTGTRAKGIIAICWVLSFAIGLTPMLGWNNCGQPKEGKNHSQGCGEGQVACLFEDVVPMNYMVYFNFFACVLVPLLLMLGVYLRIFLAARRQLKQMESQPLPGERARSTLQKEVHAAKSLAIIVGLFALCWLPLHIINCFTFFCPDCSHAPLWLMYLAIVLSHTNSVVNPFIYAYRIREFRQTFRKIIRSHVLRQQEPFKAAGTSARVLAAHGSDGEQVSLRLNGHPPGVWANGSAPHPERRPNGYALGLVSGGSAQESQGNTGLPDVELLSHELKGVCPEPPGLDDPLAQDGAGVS
Chain of Adenosine receptor A2a (Rattus norvegicus) (P30543 whole entry): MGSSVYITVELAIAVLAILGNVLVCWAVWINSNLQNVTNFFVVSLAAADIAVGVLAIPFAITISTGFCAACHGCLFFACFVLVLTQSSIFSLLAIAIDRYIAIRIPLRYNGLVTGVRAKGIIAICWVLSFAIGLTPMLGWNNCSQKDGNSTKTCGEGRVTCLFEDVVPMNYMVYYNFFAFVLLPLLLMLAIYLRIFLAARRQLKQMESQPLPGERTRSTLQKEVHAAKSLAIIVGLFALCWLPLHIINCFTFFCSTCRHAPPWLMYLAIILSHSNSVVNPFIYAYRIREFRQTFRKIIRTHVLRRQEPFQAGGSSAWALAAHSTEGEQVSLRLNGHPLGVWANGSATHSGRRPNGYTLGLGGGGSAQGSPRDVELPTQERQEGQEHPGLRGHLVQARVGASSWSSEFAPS
Chain of Adenosine receptor A2a (Rattus norvegicus, UniProt P30543) (P30543 whole entry): as above

## CCn1c(=O)c2c(nc(/C=C/c3ccc(OC)c(OC)c3)n2C)n(CC)c1=O [ISTRADEFYLLINE]
Adenosine receptor A3 [1]
  Ki: > 3000 nM

## CC1CN(c2nnc(N)nc2-c2ccccc2)CC(C)O1 (stereo not given)
Homo sapiens
  Ratio Ki: 617
Adenosine receptor A1 [2]
  Ki: 10000 nM

## Nc1nc(-c2ccco2)c2ncn(C(=O)NCc3ccccc3)c2n1
Adenosine receptor A2b
  Ki: 112 nM
Adenosine receptor A3 [1]
  Ki: 1470 nM

## COc1ccc(-c2ccccc2)c2cc(C(=O)N3CCOCC3)oc12
Adenosine receptor A2a [3]
  inhibition: 39%
Adenosine receptor A2a [4]
  inhibition: 81%
[5]
  inhibition: 81%
[6]
  inhibition: 98%
[7]
  inhibition: 37%
[8]
  inhibition: 82%
Mus musculus [9]
  inhibition in vivo at 10 mg/kg: 78%

## Cc1cc(C)n(-c2cc(NC(=O)CN3CCN(C)CC3)nc(-c3nccs3)n2)n1
Homo sapiens
  Ratio Ki: 222

## COCCOc1ccc(N2CCN(CCn3cnc4c3nc(N)n3nc(-c5ccco5)nc43)CC2)cc1
Homo sapiens
  Ratio Ki: 669
Rattus norvegicus [10]
  inhibition in vivo at 1 mg/kg: 55%
Rattus norvegicus [11]
  inhibition in vivo at 1 mg/kg: 50%
Adenosine receptor A1 [2]
  Ki: 602 nM

## Nc1nnc(-c2ccccc2)c(-c2ccccc2)n1
Adenosine receptor A1 [2]
  Ki: 270 nM

## O=C(Nc1ccc(F)cc1)Nc1ccc(Nc2nc(-c3ccccc3)nc3c2nnn3Cc2ccccc2)cc1
Adenosine receptor A1 [12]
  Ki: 107 nM
Adenosine receptor A3 [13]
  Ki: 92 nM
Adenosine receptor A2a [14]
  Ki: 167 nM

## Nc1nc(-c2ccccc2)c2c(n1)-c1cc(OCCN3CCOCC3)ccc1C2=O
Mus musculus [15]
  ED50: 0.3 mg/kg

## Nc1nc2c(cnn2CCN2CCOCC2)c2nn(Cc3cccc(Cl)c3)c(=O)n12
Homo sapiens
  Ratio Ki: 99
Adenosine receptor A1 [2]
  Ki: 1400 nM

## COc1ccc(C2CCOCC2)c2oc(NC(=O)c3ccnc(N4CCOCC4)c3)nc12
Homo sapiens
  Ratio Ki: 351
Adenosine receptor A2a [16]
  Ki: 25 nM
Adenosine receptor A1 [2]
  Ki: 8780 nM

## Nc1nc(NC[C@H]2CCCN2Cc2ccnc(Cl)c2)nc2nc(-c3ccco3)nn12
Rattus norvegicus [17]
  Ratio Ki: 63
Adenosine receptor A1 [18]
  Ki: > 250 nM

## CC(=O)CCc1nc(N)c2nc(-n3nccn3)n(C)c2n1
Homo sapiens
  Ratio Ki: 16
Adenosine receptor A1 [2]
  Ki: 192 nM

## COCCOc1ccc(N2CCN(CCn3cnc4c3nc(N)n3nc(-c5ccccn5)nc43)CC2)cc1
Homo sapiens
  Ratio Ki: 108
Adenosine receptor A1 [2]
  Ki: 1360 nM

## CC1(C)CCCN(c2nnc(N)nc2-c2ccccc2)C1
Homo sapiens
  Ratio Ki: 245
Adenosine receptor A1 [2]
  Ki: 10000 nM

## Cc1ccc2cc(CCn3ncc4c3nc(N)n3nc(-c5ccco5)nc43)ccc2n1
Homo sapiens
  Ratio Ki: 169
[19]
  AUC: 1400 ng·h/mL
Rattus norvegicus [20]
  inhibition in vivo at 3 mg/kg: 86%
Rattus norvegicus [21]
  inhibition in vivo at 3 mg/kg: 38%
Adenosine receptor A1 [2]
  Ki: 406 nM

## COc1ccc(N2CCOCC2)c2cc(C(=O)Nc3ccncc3)oc12
Mus musculus [9]
  inhibition in vivo at 10 mg/kg: 76%

## Nc1nc(-c2ccco2)c2c(n1)-c1ccccc1C2=O
Mus musculus [15]
  ED50: 5 mg/kg

## CC(C)n1cc(-c2ncc(N)nc2-c2ccc(F)cc2)ccc1=O
Rattus norvegicus [22]
  minimal effective dose: 0.1 mg/kg
[23]
  Activity: 85%
Adenosine receptor A3 [1]
  Ki: > 557 nM

## Nc1nc(NCCc2ccc(O)cc2)nc2nc(-c3ccco3)nn12 [ZM-241385]
Adenosine receptor A3 [1]
  Ki: > 10000 nM

## Cc1cc(Cn2nnc3c(-c4ccco4)nc(N)nc32)ccc1N [VIPADENANT]
Rattus norvegicus [22]
  minimal effective dose: 0.1 mg/kg

## Nc1nc2ccc(Cl)cc2c2nc(-c3ccco3)nn12 [CGS-15943]
Adenosine receptor A2a [24]
  Ki: 0.4 nM

## CCNC(=O)[C@H]1O[C@@H](n2cnc3c(N)nc(NCCc4ccc(CCC(=O)NCCN)cc4)nc32)[C@H](O)[C@@H]1O
Rattus norvegicus [25]
  ID90: 3.4 mg/kg
Rattus norvegicus [25]; Rattus norvegicus, po, read-out: ID50 (the source's name)
  ED50: 0.5 mg/kg
